In US20230365546A1, “5-SUBSTITUTED INDOLE 3-AMIDE DERIVATIVES, PREPARATION METHOD AND USE THEREOF” (ORIGIANT PHARMACEUTICAL CO., LTD, priority 2020, published 2023):

Assays:
Test in all cases: Kinase Profiler 10 μM panel
IRAK1(h) = IRAK1(h) (Homo sapiens (Human), UniProt P51617)
Procedure: (§1) In vitro kinase assays were conducted using Kinase Profiler services provided by Eurofins. The experimental method was as follows: the small molecule compound to be tested (0.001-10 μM), the protein kinase to be tested were incubated with a buffer containing substrate, 10 mM magnesium acetate, and [γ-^33P-ATP], the reaction was started by adding Mg\TPmix, after incubation for a period of time at room temperature, a 3% phosphate solution was added to the buffer to stop the reaction. Subsequently, 10 μL of the reaction mixture was quantitatively pipetted onto P30 filter paper, which was washed three times with 75 mM phosphate solution and then once with methanol. The P30 filter paper was air-dried and scintillation fluid was added for scintillation counting.

Blk(h) = Blk(h) (Homo sapiens (Human), UniProt P51451)
Procedure: as §1

CDK4/cyclinD3(h) = CDK4/cyclinD3(h) (Homo sapiens (Human), UniProt P11802)
Procedure: as §1

TTBK2(h) = TTBK2(h) (Homo sapiens (Human), UniProt Q6IQ55)
Procedure: as §1

PIP5K1g(h) = PIP5K1g(h) (Homo sapiens (Human), UniProt O60331)
Sequence of PIP5K1g(h) (O60331 whole entry): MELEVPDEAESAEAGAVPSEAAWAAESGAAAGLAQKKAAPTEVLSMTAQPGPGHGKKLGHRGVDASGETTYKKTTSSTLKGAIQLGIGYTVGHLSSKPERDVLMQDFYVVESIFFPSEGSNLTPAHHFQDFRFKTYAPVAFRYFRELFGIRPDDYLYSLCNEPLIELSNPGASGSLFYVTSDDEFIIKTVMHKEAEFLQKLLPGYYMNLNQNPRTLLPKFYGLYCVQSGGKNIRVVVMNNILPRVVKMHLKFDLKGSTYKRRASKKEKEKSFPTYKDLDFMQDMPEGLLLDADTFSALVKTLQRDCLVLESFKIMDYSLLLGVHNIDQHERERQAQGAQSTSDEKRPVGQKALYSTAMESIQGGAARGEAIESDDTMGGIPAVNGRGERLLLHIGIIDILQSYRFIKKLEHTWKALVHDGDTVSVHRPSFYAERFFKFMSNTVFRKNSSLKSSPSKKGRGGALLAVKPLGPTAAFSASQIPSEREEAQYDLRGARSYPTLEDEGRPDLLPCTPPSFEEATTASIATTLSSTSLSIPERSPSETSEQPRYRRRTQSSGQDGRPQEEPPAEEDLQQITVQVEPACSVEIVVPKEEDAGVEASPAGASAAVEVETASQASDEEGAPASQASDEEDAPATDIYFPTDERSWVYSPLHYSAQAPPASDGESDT
Procedure: as §1

TAO1(h) = TAO1(h) (Homo sapiens (Human), UniProt Q7L7X3)
Procedure: as §1

MLCK(h) = test system: MLCK(h)
Procedure: as §1

SGK(h) = SGK(h) (Homo sapiens (Human), UniProt O00141)
Procedure: as §1

HIPK3(h) = HIPK3(h) (Homo sapiens (Human), UniProt Q9H422)
Procedure: as §1

CLK4(h) = CLK4(h) (Homo sapiens (Human), UniProt Q9HAZ1)
Procedure: as §1

ACK1(h) = ACK1(h) (Homo sapiens (Human), UniProt Q07912)
Procedure: as §1

Arg(m) = Arg(m) (Mus musculus (Mouse), UniProt Q4JIM5)
Procedure: as §1

MEK2(h) = MEK2(h) (Homo sapiens (Human), UniProt P36507)
Procedure: as §1

Lyn(m) = Lyn(m) (Mus musculus (Mouse), UniProt P25911)
Procedure: as §1

RIPK2(h) = RIPK2(h) (Homo sapiens (Human), UniProt O43353)
Procedure: as §1

IGF-1R(h) = IGF-1R(h) (Homo sapiens (Human), UniProt P08069)
Procedure: as §1

PDGFRα(h) = PDGFRα(h) (Homo sapiens (Human), UniProt P16234)
Procedure: as §1

Abl (H396P)(h) = Abl (H396P)(h) (Homo sapiens (Human), UniProt P00519, H396P)
Procedure: as §1

TrkC(h) = TrkC(h) (Homo sapiens (Human), UniProt Q16288)
Procedure: as §1

PKD3(h) = PKD3(h) (Homo sapiens (Human), UniProt O94806)
Sequence of PKD3(h) (O94806 whole entry): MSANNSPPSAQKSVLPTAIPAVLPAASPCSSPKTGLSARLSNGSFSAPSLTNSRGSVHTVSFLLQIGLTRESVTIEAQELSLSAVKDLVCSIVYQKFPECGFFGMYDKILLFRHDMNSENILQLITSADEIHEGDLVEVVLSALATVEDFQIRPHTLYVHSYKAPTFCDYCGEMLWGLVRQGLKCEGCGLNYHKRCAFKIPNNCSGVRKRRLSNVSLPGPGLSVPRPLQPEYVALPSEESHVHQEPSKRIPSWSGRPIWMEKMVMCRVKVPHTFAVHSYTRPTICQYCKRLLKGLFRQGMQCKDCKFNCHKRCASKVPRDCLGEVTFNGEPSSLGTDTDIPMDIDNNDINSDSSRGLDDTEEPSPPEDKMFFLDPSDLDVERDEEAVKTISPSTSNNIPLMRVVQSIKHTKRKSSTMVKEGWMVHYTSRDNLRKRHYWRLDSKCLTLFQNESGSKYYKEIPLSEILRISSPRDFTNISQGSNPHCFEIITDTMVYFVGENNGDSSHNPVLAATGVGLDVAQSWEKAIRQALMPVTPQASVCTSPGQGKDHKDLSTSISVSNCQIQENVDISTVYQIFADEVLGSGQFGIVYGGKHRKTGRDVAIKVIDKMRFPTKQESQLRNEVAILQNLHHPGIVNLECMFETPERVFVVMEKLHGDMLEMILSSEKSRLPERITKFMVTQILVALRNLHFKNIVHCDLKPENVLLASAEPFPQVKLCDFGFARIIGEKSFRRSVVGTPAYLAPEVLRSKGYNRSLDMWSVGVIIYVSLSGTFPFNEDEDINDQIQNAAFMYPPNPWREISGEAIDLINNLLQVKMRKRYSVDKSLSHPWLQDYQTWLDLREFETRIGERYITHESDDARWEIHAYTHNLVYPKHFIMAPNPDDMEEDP
Procedure: as §1

PKBβ(h) = PKBβ(h) (Homo sapiens (Human), UniProt P31751)
Procedure: as §1

ATM(h) = ATM(h) (Homo sapiens (Human), UniProt Q13315)
Procedure: as §1

MARK3(h) = MARK3(h) (Homo sapiens (Human), UniProt P27448)
Procedure: as §1

JAK1(h) = JAK1(h) (Homo sapiens (Human), UniProt P23458)
Procedure: as §1

PI3KC2a(h) = PI3KC2a(h) (Homo sapiens (Human), UniProt O00443)
Procedure: as §1

CRIK(h) = CRIK(h) (Homo sapiens (Human), UniProt O14578)
Sequence of CRIK(h) (O14578 whole entry): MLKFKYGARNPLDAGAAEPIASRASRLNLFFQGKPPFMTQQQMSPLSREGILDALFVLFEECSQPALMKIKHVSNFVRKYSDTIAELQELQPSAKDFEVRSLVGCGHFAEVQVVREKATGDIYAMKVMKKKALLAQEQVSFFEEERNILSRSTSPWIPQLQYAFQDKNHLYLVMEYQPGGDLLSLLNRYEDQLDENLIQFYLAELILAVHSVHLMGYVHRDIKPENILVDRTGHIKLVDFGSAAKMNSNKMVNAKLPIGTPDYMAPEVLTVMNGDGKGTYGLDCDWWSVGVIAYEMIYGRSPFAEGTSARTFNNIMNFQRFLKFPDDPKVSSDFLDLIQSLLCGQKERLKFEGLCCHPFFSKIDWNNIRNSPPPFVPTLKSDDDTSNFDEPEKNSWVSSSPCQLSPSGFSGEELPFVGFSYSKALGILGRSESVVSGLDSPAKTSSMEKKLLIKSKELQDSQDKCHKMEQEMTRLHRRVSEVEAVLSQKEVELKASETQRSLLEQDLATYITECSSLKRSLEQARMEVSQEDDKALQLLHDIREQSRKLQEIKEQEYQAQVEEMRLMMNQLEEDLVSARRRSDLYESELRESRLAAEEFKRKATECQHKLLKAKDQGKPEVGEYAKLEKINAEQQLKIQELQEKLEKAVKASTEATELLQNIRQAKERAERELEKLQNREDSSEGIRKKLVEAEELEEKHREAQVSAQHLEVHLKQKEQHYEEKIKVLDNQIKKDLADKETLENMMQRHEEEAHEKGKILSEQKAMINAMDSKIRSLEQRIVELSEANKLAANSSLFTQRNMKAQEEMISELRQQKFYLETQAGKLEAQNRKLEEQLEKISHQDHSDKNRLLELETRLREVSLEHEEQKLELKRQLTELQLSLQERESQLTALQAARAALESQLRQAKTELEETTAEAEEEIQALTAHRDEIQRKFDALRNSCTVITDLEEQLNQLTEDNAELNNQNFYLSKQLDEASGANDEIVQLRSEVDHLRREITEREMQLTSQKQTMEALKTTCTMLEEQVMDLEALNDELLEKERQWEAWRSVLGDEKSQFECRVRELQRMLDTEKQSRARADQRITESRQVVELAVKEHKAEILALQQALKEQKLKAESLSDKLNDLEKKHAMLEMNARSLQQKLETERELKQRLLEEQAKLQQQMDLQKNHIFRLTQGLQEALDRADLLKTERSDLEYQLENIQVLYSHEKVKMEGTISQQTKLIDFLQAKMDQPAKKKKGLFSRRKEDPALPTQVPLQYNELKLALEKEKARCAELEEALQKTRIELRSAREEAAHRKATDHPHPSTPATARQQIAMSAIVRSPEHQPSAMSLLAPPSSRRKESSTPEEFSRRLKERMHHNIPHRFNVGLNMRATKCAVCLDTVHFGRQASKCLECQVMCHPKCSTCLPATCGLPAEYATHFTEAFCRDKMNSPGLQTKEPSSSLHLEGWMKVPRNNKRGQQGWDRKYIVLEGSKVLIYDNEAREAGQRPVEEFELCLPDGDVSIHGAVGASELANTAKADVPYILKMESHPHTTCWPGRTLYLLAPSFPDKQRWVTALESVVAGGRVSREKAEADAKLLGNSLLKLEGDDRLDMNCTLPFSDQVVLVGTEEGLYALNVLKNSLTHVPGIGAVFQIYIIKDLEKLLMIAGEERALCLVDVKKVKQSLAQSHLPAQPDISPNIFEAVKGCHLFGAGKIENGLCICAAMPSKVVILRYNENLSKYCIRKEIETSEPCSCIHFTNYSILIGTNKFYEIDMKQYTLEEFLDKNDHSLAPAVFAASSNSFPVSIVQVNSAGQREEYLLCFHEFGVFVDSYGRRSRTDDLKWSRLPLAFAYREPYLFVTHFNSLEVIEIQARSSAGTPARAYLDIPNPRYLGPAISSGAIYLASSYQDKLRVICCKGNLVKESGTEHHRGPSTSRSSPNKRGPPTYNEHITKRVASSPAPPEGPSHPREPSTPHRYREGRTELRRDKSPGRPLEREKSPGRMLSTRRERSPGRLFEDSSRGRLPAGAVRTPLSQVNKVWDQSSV
Procedure: as §1

AAK1(h) = AAK1(h) (Homo sapiens (Human), UniProt Q2M2I8)
Procedure: as §1

B-Raf(V599E)(h) = B-Raf(V599E)(h) (Homo sapiens (Human), UniProt P15056, V600E)
Procedure: as §1

PDGFRβ(h) = PDGFRβ(h) (Homo sapiens (Human), UniProt P09619)
Procedure: as §1

Src(T341M)(h) = Src(T341M)(h) (Homo sapiens (Human), UniProt P12931, T341M)
Procedure: as §1

MOK(h) = MOK(h) (Homo sapiens (Human), UniProt Q9UQ07)
Procedure: as §1

BrSK2(h) = BrSK2(h) (Homo sapiens (Human), UniProt Q8IWQ3)
Sequence of BrSK2(h) (Q8IWQ3 whole entry): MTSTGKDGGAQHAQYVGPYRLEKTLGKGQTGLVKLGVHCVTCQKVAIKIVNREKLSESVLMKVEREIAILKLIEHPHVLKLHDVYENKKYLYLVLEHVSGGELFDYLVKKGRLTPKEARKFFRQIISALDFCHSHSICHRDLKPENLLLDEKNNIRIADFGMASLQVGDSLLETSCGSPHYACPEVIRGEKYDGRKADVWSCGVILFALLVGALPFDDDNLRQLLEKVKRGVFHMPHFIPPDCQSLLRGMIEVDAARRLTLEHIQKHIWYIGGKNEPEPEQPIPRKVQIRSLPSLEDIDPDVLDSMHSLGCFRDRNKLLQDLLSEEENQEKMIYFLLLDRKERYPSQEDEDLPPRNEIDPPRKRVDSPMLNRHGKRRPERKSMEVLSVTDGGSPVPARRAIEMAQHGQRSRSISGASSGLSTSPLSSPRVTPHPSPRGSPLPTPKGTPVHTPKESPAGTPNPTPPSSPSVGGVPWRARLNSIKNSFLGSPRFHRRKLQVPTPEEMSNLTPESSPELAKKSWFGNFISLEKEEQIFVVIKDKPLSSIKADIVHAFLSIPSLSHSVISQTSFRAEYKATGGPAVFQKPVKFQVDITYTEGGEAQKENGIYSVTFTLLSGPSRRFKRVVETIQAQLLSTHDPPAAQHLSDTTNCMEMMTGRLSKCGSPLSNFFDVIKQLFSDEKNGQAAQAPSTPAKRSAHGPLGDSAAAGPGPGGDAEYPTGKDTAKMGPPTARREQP
Procedure: as §1

TYK2(h) = TYK2(h) (Homo sapiens (Human), UniProt P29597)
Procedure: as §1

ZIPK(h) = ZIPK(h) (Homo sapiens (Human), UniProt O43293)
Procedure: as §1

Sequence of IRAK1(h) (P51617 whole entry): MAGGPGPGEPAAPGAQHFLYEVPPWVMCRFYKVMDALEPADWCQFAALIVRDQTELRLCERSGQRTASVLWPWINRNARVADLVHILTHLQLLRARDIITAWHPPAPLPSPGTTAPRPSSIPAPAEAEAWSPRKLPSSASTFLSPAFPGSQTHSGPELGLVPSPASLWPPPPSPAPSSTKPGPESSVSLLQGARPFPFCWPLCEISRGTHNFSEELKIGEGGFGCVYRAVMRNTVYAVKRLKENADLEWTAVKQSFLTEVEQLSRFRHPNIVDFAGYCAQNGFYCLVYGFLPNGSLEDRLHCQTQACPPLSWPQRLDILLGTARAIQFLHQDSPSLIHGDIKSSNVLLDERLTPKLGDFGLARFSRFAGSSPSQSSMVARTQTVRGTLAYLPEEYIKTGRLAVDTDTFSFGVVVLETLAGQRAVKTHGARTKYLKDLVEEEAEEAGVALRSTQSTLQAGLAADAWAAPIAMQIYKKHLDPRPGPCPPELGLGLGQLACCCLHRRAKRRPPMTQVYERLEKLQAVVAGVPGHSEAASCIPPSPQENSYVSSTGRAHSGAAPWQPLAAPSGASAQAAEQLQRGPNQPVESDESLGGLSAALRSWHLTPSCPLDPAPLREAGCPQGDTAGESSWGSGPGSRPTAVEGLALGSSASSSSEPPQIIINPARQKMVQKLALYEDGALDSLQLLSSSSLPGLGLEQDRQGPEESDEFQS

SMILES: C[C@H](NC(=O)c1c[nH]c2ccc(-c3ccc4nc(NC(=O)C5CC5)sc4c3)cc12)c1cccc(F)c1 [Compound 34, (S)-5-(2-(cyclopropanecarboxamido)benzo[d]thiazol-6-yl)-N-(1-(3-fluorophenyl)ethyl)-1H-indole-3-carboxamide]
- Inhibition ratio (IRAK1(h)): 32%
- Inhibition ratio (Blk(h)): 65%
- Inhibition ratio (CDK4/cyclinD3(h)): −5%
- Inhibition ratio (TTBK2(h)): 8%
- Inhibition ratio (PIP5K1g(h)): 18%
- Inhibition ratio (TAO1(h)): 24%
- Inhibition ratio (MLCK(h)): 14%
- Inhibition ratio (SGK(h)): 2%
- Inhibition ratio (HIPK3(h)): 79%
- Inhibition ratio (CLK4(h)): 79%
- Inhibition ratio (ACK1(h)): 35%
- Inhibition ratio (Arg(m)): 87%
- Inhibition ratio (MEK2(h)): 8%
- Inhibition ratio (Lyn(m)): 72%
- Inhibition ratio (RIPK2(h)): 67%
- Inhibition ratio (IGF-1R(h)): 28%
- Inhibition ratio (PDGFRα(h)): 32%
- Inhibition ratio (Abl (H396P)(h)): 98%
- Inhibition ratio (TrkC(h)): 104%
- Inhibition ratio (PKD3(h)): −5%
- Inhibition ratio (PKBβ(h)): 12%
- Inhibition ratio (ATM(h)): 3%
- Inhibition ratio (MARK3(h)): 0%
- Inhibition ratio (JAK1(h)): 26%
- Inhibition ratio (PI3KC2a(h)): 16%
- Inhibition ratio (CRIK(h)): 5%
- Inhibition ratio (AAK1(h)): 24%
- Inhibition ratio (B-Raf(V599E)(h)): 14%
- Inhibition ratio (PDGFRβ(h)): 9%
- Inhibition ratio (Src(T341M)(h)): 36%
- Inhibition ratio (MOK(h)): −15%
- Inhibition ratio (BrSK2(h)): 8%
- Inhibition ratio (TYK2(h)): 12%
- Inhibition ratio (ZIPK(h)): −4%

SMILES: C[C@H](NC(=O)c1cn(C)c2ccc(-c3ccn4nc(NC(=O)C5CC5)nc4c3)cc12)c1cccc(F)c1 [Compound 94, (S)-5-(2-(cyclopropanecarboxamido)-[1,2,4]triazolo[1,5-a]pyridin-7-yl)-N-(1-(3-fluorophenyl)ethyl)-1-methyl-1H-indole-3-carboxamide]
- Inhibition ratio/% (IRAK1(h)): 23%
- Inhibition ratio/% (Blk(h)): 65%
- Inhibition ratio/% (CDK4/cyclinD3(h)): 4%
- Inhibition ratio/% (TTBK2(h)): −16%
- Inhibition ratio/% (PIP5K1g(h)): −16%
- Inhibition ratio/% (TAO1(h)): 50%
- Inhibition ratio/% (MLCK(h)): 14%
- Inhibition ratio/% (SGK(h)): 51%
- Inhibition ratio/% (HIPK3(h)): 62%
- Inhibition ratio/% (CLK4(h)): 79%
- Inhibition ratio/% (ACK1(h)): 33%
- Inhibition ratio/% (Arg(m)): 11%
- Inhibition ratio/% (MEK2(h)): 13%
- Inhibition ratio/% (Lyn(m)): 19%
- Inhibition ratio/% (RIPK2(h)): −7%
- Inhibition ratio/% (IGF-1R(h)): −4%
- Inhibition ratio/% (PDGFRα(h)): 51%
- Inhibition ratio/% (Abl (H396P)(h)): 34%
- Inhibition ratio/% (TrkC(h)): 28%
- Inhibition ratio/% (PKD3(h)): −13%
- Inhibition ratio/% (PKBβ(h)): −8%
- Inhibition ratio/% (ATM(h)): −15%
- Inhibition ratio/% (MARK3(h)): −3%
- Inhibition ratio/% (JAK1(h)): 52%
- Inhibition ratio/% (PI3KC2a(h)): 40%
- Inhibition ratio/% (CRIK(h)): −7%
- Inhibition ratio/% (AAK1(h)): 2%
- Inhibition ratio/% (B-Raf(V599E)(h)): −10%
- Inhibition ratio/% (PDGFRβ(h)): 49%
- Inhibition ratio/% (Src(T341M)(h)): −6%
- Inhibition ratio/% (MOK(h)): −15%
- Inhibition ratio/% (BrSK2(h)): −2%
- Inhibition ratio/% (TYK2(h)): 50%
- Inhibition ratio/% (ZIPK(h)): 6%
